Results published in patent US20220211478A1, “SURGICAL SYSTEM AND METHODS OF USE” (priority 2021, published 2022).

Legend:
myofibroblast formation = details: capsular contracture with breast implants; Ajmal et al. (2003); cited from earlier work
fibrinolysis = assay: prevention / reversal of fibrinolysis; details: relative to doses of the non-GLP acute porcine study
From the text: (§1) However, in some embodiments, however, higher doses of tranexamic acid are used for topical applications to account for tranexamic acid being widely distributed throughout the extracellular and intracellular compartments when given preoperatively.

[1] = in vivo
From the text: as §1

SMILES | effect on myofibroblast formation (myofibroblast formation) | dose effective in reversing fibrinolysis (fibrinolysis) | time to reach plasma concentrations [1] [min]
O=S(=O)([O-])CCS.[Na+] [MESNA, sodium 2-mercaptoethane sulfonate] | diminish myofibroblast formation | – | –
NC[C@H]1CC[C@H](C(=O)O)CC1 [tranexamic acid, trans-4-(aminomethyl)cyclohexanecarboxylic acid] | – | one tenth of the doses used in the non-GLP acute porcine study | 5 to 15
